Source: US11154060B2, “Microbiocidal oxadiazole derivatives” (SYNGENTA PARTICIPATIONS AG, priority 2016, dated 2021)

Assays:
[1] = test system: Puccinia recondita f. sp. tritici; experiment: Puccinia recondita f. sp. tritici / wheat / leaf disc preventative (brown rust); type: in vivo; settings: foliar, wheat leaf segments cv. Kanzler, inoculated 1 day after application, assessed 7-9 days after application, read-out: control of Puccinia recondita f. sp. tritici compared to untreated control
Description: Leaf disks or leaf segments of various plant species are cut from plants grown in a greenhouse. The cut leaf disks or segments are placed in multiwell plates (24-well format) onto water agar. The leaf disks are sprayed with a test solution before (preventative) or after (curative) inoculation. Compounds to be tested are prepared as DMSO solutions (max. 10 mg/ml) which are diluted to the appropriate concentration with 0.025% Tween20 just before spraying. The inoculated leaf disks or segments are incubated under defined conditions (temperature, relative humidity, light, etc.) according to the respective test system. A single evaluation of disease level is carried out 3 to 14 days after inoculation, depending on the pathosystem. Percent disease control relative to the untreated check leaf disks or segments is then calculated. Wheat leaf segments cv. Kanzler are placed on agar in multiwell plates (24-well format) and sprayed with the formulated test compound diluted in water. The leaf disks are inoculated with a spore suspension of the fungus 1 day after application. The inoculated leaf segments are incubated at 19° C. and 75% rh under a light regime of 12 h light/12 h darkness in a climate cabinet and the activity of a compound is assessed as percent disease control compared to untreated when an appropriate level of disease damage appears in untreated check leaf segments (7-9 days after application).

[2] = test system: Puccinia recondita f. sp. tritici; experiment: Puccinia recondita f. sp. tritici / wheat / leaf disc curative (brown rust); type: in vivo; settings: foliar, wheat leaf segments cv. Kanzler, applied 1 day after inoculation, assessed 6-8 days after application, read-out: control of Puccinia recondita f. sp. tritici compared to untreated control
Description: Leaf disks or leaf segments of various plant species are cut from plants grown in a greenhouse. The cut leaf disks or segments are placed in multiwell plates (24-well format) onto water agar. The leaf disks are sprayed with a test solution before (preventative) or after (curative) inoculation. Compounds to be tested are prepared as DMSO solutions (max. 10 mg/ml) which are diluted to the appropriate concentration with 0.025% Tween20 just before spraying. The inoculated leaf disks or segments are incubated under defined conditions (temperature, relative humidity, light, etc.) according to the respective test system. A single evaluation of disease level is carried out 3 to 14 days after inoculation, depending on the pathosystem. Percent disease control relative to the untreated check leaf disks or segments is then calculated. Wheat leaf segments cv. Kanzler are placed on agar in multiwell plates (24-well format). The leaf segments are inoculated with a spore suspension of the fungus. Plates are stored in darkness at 19° C. and 75% rh. The formulated test compound diluted in water is applied 1 day after inoculation. The leaf segments are incubated at 19° C. and 75% rh under a light regime of 12 h light/12 h darkness in a climate cabinet and the activity of a compound is assessed as percent disease control compared to untreated when an appropriate level of disease damage appears in untreated check leaf segments (6-8 days after application).

[3] = test system: Glomerella lagenarium (Colletotrichum lagenarium); experiment: Glomerella lagenarium (Colletotrichum lagenarium) liquid culture / cucumber / preventative (anthracnose); type: cell-based; settings: Colletotrichum orbiculare, liquid culture in PDB, 24° C., 3-4 days after application, read-out: control of Glomerella lagenarium compared to untreated control (inhibition of growth, photometric)
Description: Mycelia fragments or conidia suspensions of a fungus prepared either freshly from liquid cultures of the fungus or from cryogenic storage, are directly mixed into nutrient broth. DMSO solutions of the test compound (max. 10 mg/ml) are diluted with 0.025% Tween20 by a factor of 50 and 10 μl of this solution is pipetted into a microtiter plate (96-well format). The nutrient broth containing the fungal spores/mycelia fragments is then added to give an end concentration of the tested compound. The test plates are incubated in the dark at 24° C. and 96% relative humidity. The inhibition of fungal growth is determined photometrically after 2 to 7 days, depending on the pathosystem, and percent antifungal activity relative to the untreated check is calculated. Conidia of the fungus from cryogenic storage are directly mixed into nutrient broth (PDB potato dextrose broth). After placing a (DMSO) solution of test compound into a microtiter plate (96-well format), the nutrient broth containing the fungal spores is added. The test plates are incubated at 24° C. and the inhibition of growth is measured photometrically 3-4 days after application.

Phakopsora pachyrhizi = Phakopsora pachyrhizi / soybean / leaf disc preventative (Asian soybean rust); type: in vivo; settings: foliar, soybean leaf disks, inoculated one day after application, assessed 12-14 days after application, read-out: control of Phakopsora pachyrhizi compared to untreated control
Description: Leaf disks or leaf segments of various plant species are cut from plants grown in a greenhouse. The cut leaf disks or segments are placed in multiwell plates (24-well format) onto water agar. The leaf disks are sprayed with a test solution before (preventative) or after (curative) inoculation. Compounds to be tested are prepared as DMSO solutions (max. 10 mg/ml) which are diluted to the appropriate concentration with 0.025% Tween20 just before spraying. The inoculated leaf disks or segments are incubated under defined conditions (temperature, relative humidity, light, etc.) according to the respective test system. A single evaluation of disease level is carried out 3 to 14 days after inoculation, depending on the pathosystem. Percent disease control relative to the untreated check leaf disks or segments is then calculated. Soybean leaf disks are placed on water agar in multiwell plates (24-well format) and sprayed with the formulated test compound diluted in water. One day after application leaf discs are inoculated by spraying a spore suspension on the lower leaf surface. After an incubation period in a climate cabinet of 24-36 hours in darkness at 20° C. and 75% rh leaf disc are kept at 20° C. with 12 h light/12 h darkness and 75% rh. The activity of a compound is assessed as percent disease control compared to untreated when an appropriate level of disease damage appears in untreated check leaf disks (12-14 days after application).

SMILES	melting point [°C]	pest or weed control at 200 ppm [1] [%]	pest or weed control at 200 ppm [2] [%]	inhibition at 20 ppm [3] [%]	pest or weed control at 200 ppm (Phakopsora pachyrhizi) [%]
O=C(NOCC(F)F)c1ccc(-c2noc(C(F)(F)F)n2)c(F)c1 [Compound 1.14, N-(2,2-difluoroethoxy)-3-fluoro-4-[5-(trifluoromethyl)-1,2,4-oxadiazol-3-yl]benzamide]	138 to 140	≥ 80	≥ 80	≥ 80	–
C=CCONC(=O)c1ccc(-c2noc(C(F)(F)F)n2)c(F)c1 [Compound 1.15, N-allyloxy-3-fluoro-4-[5-(trifluoromethyl)-1,2,4-oxadiazol-3-yl]benzamide]	132 to 136	≥ 80	≥ 80	≥ 80	–
O=C(NOCc1ccccc1)c1ccc(-c2noc(C(F)(F)F)n2)c(F)c1 [Compound 1.16, N-benzyloxy-3-fluoro-4-[5-(trifluoromethyl)-1,2,4-oxadiazol-3-yl]benzamide]	178 to 181	≥ 80	≥ 80	≥ 80	≥ 80
CONC(=O)Cc1ccc(-c2noc(C(F)(F)F)n2)c(F)c1 [Compound 1.17, 2-[3-fluoro-4-[5-(trifluoromethyl)-1,2,4-oxadiazol-3-yl]phenyl]-N-methoxy-acetamide]	131 to 133	≥ 80	≥ 80	≥ 80	≥ 80
CON(C)C(=O)Cc1ccc(-c2noc(C(F)(F)F)n2)cc1F [Compound 1.19, 2-[2-fluoro-4-[5-(trifluoromethyl)-1,2,4-oxadiazol-3-yl]phenyl]-N-methoxy-N-methyl-acetamide]	104 to 106	≥ 80	≥ 80	≥ 80	≥ 80
CONC(=O)Cc1ccc(-c2noc(C(F)(F)F)n2)cc1F [Compound 1.20, 2-[2-fluoro-4-[5-(trifluoromethyl)-1,2,4-oxadiazol-3-yl]phenyl]-N-methoxy-acetamide]	150 to 152	≥ 80	≥ 80	≥ 80	–
CCONC(=O)Cc1ccc(-c2noc(C(F)(F)F)n2)cc1F [Compound 1.21, N-ethoxy-2-[2-fluoro-4-[5-(trifluoromethyl)-1,2,4-oxadiazol-3-yl]phenyl]acetamide]	81 to 83	≥ 80	≥ 80	≥ 80	–
CCONC(=O)Cc1ccc(-c2noc(C(F)(F)F)n2)c(F)c1 [Compound 1.22, N-ethoxy-2-[3-fluoro-4-[5-(trifluoromethyl)-1,2,4-oxadiazol-3-yl]phenyl]acetamide]	150 to 152	≥ 80	≥ 80	≥ 80	≥ 80
O=C(Cc1ccc(-c2noc(C(F)(F)F)n2)cc1F)NOCC(F)F [Compound 1.23, N-(2,2-difluoroethoxy)-2-[2-fluoro-4-[5-(trifluoromethyl)-1,2,4-oxadiazol-3-yl]phenyl]acetamide]	114 to 116	≥ 80	≥ 80	≥ 80	–

The next lines start with results.

melting point [°C]	SMILES	pest or weed control at 200 ppm [1] [%]	pest or weed control at 200 ppm [2] [%]	inhibition at 20 ppm [3] [%]	pest or weed control at 200 ppm (Phakopsora pachyrhizi) [%]
131 to 138	CONC(=O)Cc1ccc(-c2noc(C(F)(F)F)n2)cc1 [Compound 2.13, N-methoxy-2-[4-[5-(trifluoromethyl)-1,2,4-oxadiazol-3-yl]phenyl]acetamide]	≥ 80	≥ 80	≥ 80	≥ 80
135 to 138	O=C(Cc1ccc(-c2noc(C(F)(F)F)n2)cc1)NOCc1ccccc1 [Compound 2.15, N-benzyloxy-2-[4-[5-(trifluoromethyl)-1,2,4-oxadiazol-3-yl]phenyl]acetamide]	≥ 80	–	≥ 80	–
171 to 183	CCONC(=O)Cc1ccc(-c2noc(C(F)(F)F)n2)cc1 [Compound 2.16, N-ethoxy-2-[4-[5-(trifluoromethyl)-1,2,4-oxadiazol-3-yl]phenyl]acetamide]	≥ 80	≥ 80	≥ 80	≥ 80
140 to 146	O=C(Cc1ccc(-c2noc(C(F)(F)F)n2)cc1)NOCC(F)F [Compound 2.17, N-(2,2-difluoroethoxy)-2-[4-[5-(trifluoromethyl)-1,2,4-oxadiazol-3-yl]phenyl]acetamide]	≥ 80	≥ 80	≥ 80	≥ 80
134 to 137	O=C(NOCC(F)F)c1ccc(-c2noc(C(F)(F)F)n2)cc1 [Compound 2.18, N-(2,2-difluoroethoxy)-4-[5-(trifluoromethyl)-1,2,4-oxadiazol-3-yl]benzamide]	≥ 80	≥ 80	≥ 80	–
